Assay results published in patent publication US10940139B2, “Compounds that interact with the Ras superfamily for the treatment of cancers, inflammatory diseases, rasopathies, and fibrotic disease” (Shy Therapeutics LLC, priority 2017, dated 2021).

Experiments:
[1] = biological target: Rac-1 (Homo sapiens (Human), UniProt P63000); test: Rac inhibition assay (labeled GTP); type: binding; conditions: read-out: Rac-1 % Inh.
[2] = biological target: KRas G12D/Q61H double mutant (Homo sapiens (Human), UniProt P01116, G12D/Q61H); test: Ras GTP binding domain inhibition assay (labeled GTP); conditions: at 20 μM; read-out: KRas G12D Q61H % Inh.
Chain of KRas G12D/Q61H double mutant (P01116-2 other isoform, or with tags, fused parts or gaps G12D/Q61H): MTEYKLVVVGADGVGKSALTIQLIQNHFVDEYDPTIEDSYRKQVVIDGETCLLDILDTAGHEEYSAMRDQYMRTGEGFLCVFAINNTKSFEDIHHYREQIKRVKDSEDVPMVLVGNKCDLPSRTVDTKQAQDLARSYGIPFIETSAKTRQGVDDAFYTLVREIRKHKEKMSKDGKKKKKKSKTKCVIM
Procedure, shortened: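 Ni-plate capture of His-KRas (3-10 μg/ml, o/n, 4° C); Tris pH 7.5/MgCl2/DTT buffer, 1% DMSO. Cpd 20 μM or titration, 3 h RT. Cy3/Cy5-GTP 45 min RT, wash, fluorescence of bound GTP.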

[3] = biological target: Rho-A (Homo sapiens (Human), UniProt P61586); test: Rho inhibition assay (labeled GTP); type: binding; conditions: read-out: Rho-A % Inh.
Chain of Rho-A (P61586 whole entry): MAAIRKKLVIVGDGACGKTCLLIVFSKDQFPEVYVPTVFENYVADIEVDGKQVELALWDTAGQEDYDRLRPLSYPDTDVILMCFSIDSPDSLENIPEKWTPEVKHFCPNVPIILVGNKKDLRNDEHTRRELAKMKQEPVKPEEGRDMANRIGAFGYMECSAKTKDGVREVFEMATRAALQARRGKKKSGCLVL

Row | Structure (SMILES) | inhibition at 20 µM [1] | inhibition at 20 µM [2] | inhibition at 20 µM [3]
1 | N#Cc1ccc(COCC(=O)Nc2ccnc(-c3ccccn3)n2)cc1 [drawing 3685] | 76 to 100% | 0% | 51 to 75%
2 | Cc1cnc(-c2ccccn2)nc1NC(=O)C(C)c1ccc(C#N)cc1 (stereo not drawn) [drawing 3686] | 76 to 100% | 1 to 25% | 51 to 75%
3 | CC(C(=O)Nc1nc(-c2ccccn2)nc2sccc12)c1ccc(C#N)cc1 (stereo not drawn) [drawing 3687] | 76 to 100% | 1 to 25% | 76 to 100%
4 | COc1cnc(CN)[nH]c1=O [drawing 3690] | 25 to 50% | 25 to 50% | 25 to 50%
5 | COc1ccc(N2CCN(C(=O)c3csc4c(O)nc(-c5ccccn5)nc34)CC2)cc1O [drawing 3691] | 76 to 100% | 1 to 25% | 76 to 100%
6 | O=C(c1csc2c(O)nc(-c3ccccn3)nc12)N1CCN(c2ccc(O)c(Cl)c2)CC1 [drawing 3692] | 76 to 100% | 51 to 75% | 76 to 100%
7 | CC(c1ccccc1)N1CCN(C(=O)c2csc3c(O)nc(-c4ccccn4)nc23)CC1 (stereo not drawn) [drawing 3693] | 76 to 100% | 51 to 75% | 76 to 100%
8 | O=C(c1csc2c(O)nc(-c3ccccn3)nc12)N1CCOC(CN2CCOCC2)C1 (stereo not drawn) [drawing 3694] | 76 to 100% | 1 to 25% | 51 to 75%
9 | O=C(c1csc2c(O)nc(-c3ccccn3)nc12)N1CCNC(c2ccccc2Cl)C1 (stereo not drawn) [drawing 3695] | 76 to 100% | 25 to 50% | 76 to 100%
10 | O=C(c1csc2c(O)nc(-c3ccccn3)nc12)N1CCNC(c2ccc(F)cc2)C1 (stereo not drawn) [drawing 3696] | 76 to 100% | 1 to 25% | 76 to 100%
11 | COCCCCNC(=O)c1csc2nc(-c3ccccn3)nc(N3CCS(=O)(=O)CC3)c12 [drawing 3698] | 1 to 25% | 1 to 25% | 1 to 25%
12 | COc1cccc(CC2CN(C(=O)c3csc4c(O)nc(-c5ccccn5)nc34)CCN2)c1 (stereo not drawn) [drawing 3702] | 76 to 100% | 51 to 75% | 51 to 75%
13 | O=C(c1csc2c(O)nc(-c3ccccn3)nc12)N1CCNC(Cc2ccc(F)cc2)C1 (stereo not drawn) [drawing 3703] | 76 to 100% | 51 to 75% | 76 to 100%
14 | O=C(c1csc2c(O)nc(-c3ccccn3)nc12)N1CCNC(Cc2cccc(F)c2)C1 (stereo not drawn) [drawing 3704] | 51 to 75% | 51 to 75% | 51 to 75%
15 | COc1ccnc(-c2nc(O)c3c(C(F)(F)F)csc3n2)c1 [drawing 3705] | 51 to 75% | 25 to 50% | 51 to 75%
16 | Nc1nc(-c2ccccn2)nc2c(-c3ccccc3Cl)csc12 [drawing 3707] | 25 to 50% | 1 to 25% | 25 to 50%
17 | Cc1sc2c(N)nc(-c3ccccn3)nc2c1-c1ccccc1 [drawing 3709] | 25 to 50% | 25 to 50% | 25 to 50%
18 | O=C(c1cc2nc(-c3ccccn3)nc(O)c2s1)N1CCOC(c2ccccc2)C1 (stereo not drawn) [drawing 3714] | 76 to 100% | 51 to 75% | 76 to 100%
19 | O=C(NCCc1cccnc1)c1cc2nc(-c3ccccn3)nc(O)c2s1 [drawing 3715] | 76 to 100% | 25 to 50% | 76 to 100%
20 | Cc1ccc(OC2CCCC2)c(-c2csc3c(O)nc(-c4ccccn4)nc23)c1 [drawing 3716] | 51 to 75% | 51 to 75% | 51 to 75%
21 | CC(C)(C)c1ccc(-c2csc3c(O)nc(-c4ccccn4)nc23)cc1 [drawing 3719] | 51 to 75% | 51 to 75% | 51 to 75%
22 | COc1ccc(CCNC(=O)c2csc3nc(-c4ccccn4)nc(N4CCS(=O)(=O)CC4)c23)cn1 [drawing 3725] | 25 to 50% | 25 to 50% | 1 to 25%
23 | O=C(NCCc1cnc(O)nc1)c1csc2nc(-c3ccccn3)nc(N3CCS(=O)(=O)CC3)c12 [drawing 3726] | 51 to 75% | 25 to 50% | 51 to 75%
24 | N#Cc1ccc2c(c1)CCCC2C(=O)Nc1ccnc(-c2ccccn2)n1 (stereo not drawn) [drawing 3727] | 51 to 75% | 51 to 75% | 51 to 75%
25 | Oc1nc(-c2ccccn2)nc2c(-c3ccc(OC4CCOC4)cc3)csc12 (stereo not drawn) [drawing 3734] | 51 to 75% | 25 to 50% | 76 to 100%
26 | Oc1nc(-c2ccccn2)nc2c(-c3ccc(OC4CCCC4)cc3)csc12 [drawing 3735] | 25 to 50% | 25 to 50% | 25 to 50%
27 | Oc1nc(-c2ccccn2)nc2c(-c3ccc(C4CCC4)cc3)csc12 [drawing 3737] | 51 to 75% | 51 to 75% | 51 to 75%

Row | Structure (SMILES) | inhibition at 20 µM [1] | inhibition at 20 µM [2] | inhibition at 20 µM [3]
28 | Oc1nc(-c2ccccn2)nc2c(-c3ccccc3OC3CCCCC3)csc12 [drawing 3738] | 51 to 75% | 51 to 75% | 51 to 75%
29 | Oc1nc(-c2ccccn2)nc2c(-c3ccc(OC4CCOCC4)cc3)csc12 [drawing 3739] | 51 to 75% | 25 to 50% | 51 to 75%
30 | COc1cc(C)c(-c2csc3c(O)nc(-c4ccccn4)nc23)cc1C [drawing 3741] | 51 to 75% | 25 to 50% | 25 to 50%
31 | Cc1cc(OC(F)F)ccc1-c1csc2c(O)nc(-c3ccccn3)nc12 [drawing 3750] | 25 to 50% | 25 to 50% | 1 to 25%
32 | Oc1nc(-c2ccccn2)nc2c(-c3ccc(CN4CCOCC4)cc3)csc12 [drawing 3754] | 51 to 75% | 25 to 50% | 25 to 50%
33 | Oc1nc(-c2ccccn2)nc2c(-c3ccc(OC4CCCCC4)cc3)csc12 [drawing 3759] | 51 to 75% | 25 to 50% | 51 to 75%
34 | Nc1nc(-c2ccccn2)nc2c(Br)csc12 [drawing 3764] | 51 to 75% | 25 to 50% | 51 to 75%
35 | Cc1sc2c(N)nc(-c3ccccn3)nc2c1Br [drawing 3765] | 25 to 50% | 25 to 50% | 25 to 50%
36 | Nc1nc(-c2ccccn2)nc2scc(Br)c12 [drawing 3766] | 51 to 75% | 25 to 50% | 51 to 75%
37 | COC(=O)c1csc2nc(-c3ccccn3)nc(N)c12 [drawing 3767] | 51 to 75% | 25 to 50% | 51 to 75%
38 | COc1nccc(CCNC(=O)c2csc3nc(-c4ccccn4)nc(N4CCOCC4)c23)n1 [drawing 3769] | 25 to 50% | 1 to 25% | 25 to 50%
39 | O=C(NCCc1ccnc(O)n1)c1csc2nc(-c3ccccn3)nc(N3CCOCC3)c12 [drawing 3770] | 51 to 75% | 1 to 25% | 51 to 75%
40 | CCn1nc(C)cc1-c1csc2c(O)nc(-c3ccccn3)nc12 [drawing 3775] | 51 to 75% | 51 to 75% | 76 to 100%
41 | Oc1nc(-c2ccccn2)nc2c(-c3ccnn3-c3ccccn3)csc12 [drawing 3776] | 25 to 50% | 1 to 25% | 25 to 50%
42 | Nc1nc(-c2ccccn2)nc2scc(C(=O)O)c12 [drawing 3778] | 51 to 75% | 25 to 50% | 51 to 75%
43 | COC(=O)c1cc2nc(-c3ccccn3)nc(O)c2s1 [drawing 3779] | 51 to 75% | 51 to 75% | 76 to 100%
44 | Oc1nc(-c2ccccn2)nc2c(-c3ccc(Cl)c(Cl)c3)csc12 [drawing 3781] | 25 to 50% | 25 to 50% | 51 to 75%
45 | Oc1nc(-c2ccccn2)nc2c(-c3cncc(F)c3)csc12 [drawing 3782] | 1 to 25% | 1 to 25% | 1 to 25%
46 | Cc1cncc(-c2csc3c(O)nc(-c4ccccn4)nc23)c1 [drawing 3785] | 51 to 75% | 25 to 50% | 25 to 50%
47 | COc1cnc(C2CCCN2)nc1O (stereo not drawn) [drawing 3788] | 0% | 0% | 1 to 25%
48 | COC(=O)c1c(C)sc2c(O)nc(-c3ccccn3)nc12 [drawing 3792] | 76 to 100% | 51 to 75% | 76 to 100%
49 | Cc1c(Br)sc2c(O)nc(-c3ccccn3)nc12 [drawing 3793] | 51 to 75% | 25 to 50% | 51 to 75%
50 | COC(=O)c1sc2c(O)nc(-c3ccccn3)nc2c1C [drawing 3795] | 51 to 75% | 25 to 50% | 51 to 75%
51 | Oc1nc(-c2ccccn2)nc2c3c(sc12)CNC3 [drawing 3796] | 76 to 100% | 51 to 75% | 76 to 100%
52 | COc1nc(-c2ccccn2)nc2c(C3CCCCC3)csc12 [drawing 3798] | 1 to 25% | 1 to 25% | 1 to 25%
53 | COc1nc(-c2ccccn2)nc2c(C3CCC3)csc12 [drawing 3799] | 76 to 100% | 51 to 75% | 76 to 100%
54 | Cc1sc2c(O)nc(-c3ccccn3)nc2c1C(=O)O [drawing 3801] | 1 to 25% | 25 to 50% | 25 to 50%
